From patent US8476255B2, “Histone deacetylase inhibitors” (Orchid Chemicals & Pharmaceuticals Limited, priority 2007, dated 2013)
pIC50: −log10 of the molar value.

Assays:
[1] = molecular target: recombinant HDAC1 enzyme (Homo sapiens (Human), UniProt Q13547); experiment: HDAC1 inhibitory activity (isoform selectivity); type: biochemical; conditions: read-out: HDAC1 inhibition (IC50)
Description: The assay was carried out, as previously described using recombinant HDAC1 enzyme (BIOMOL, USA) and following manufacturer's instructions.

[2] = test system: NCIH460, HCT116 and U251 cells; experiment: Anti-cancer screen, mean GI50 over cell lines; type: cell-based; conditions: mean over cell lines; read-out: Cell growth inhibition Mean GI50
Procedure, shortened: (§1)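 Five-point MTT cytotoxicity test with 48 h compound exposure (final 0.01–100 μM, triplicate) in DMEM with 10% FBS, using a T0 viability plate and SAHA as reference standard.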

[3] = test system: HDAC (Mouse Liver Extract); experiment: HDAC inhibition assay using Boc-Lys(Ac)-AMC substrate; type: biochemical; conditions: mouse liver enzyme
Procedure, shortened: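 Boc-Lys(Ac)-AMC substrate incubated with mouse liver extract as HDAC source, 5 min preincubation then 30 min at 37° C. Trypsin stop solution added (37° C., 15-30 min) to release AMC, read at ex 360/em 460 nm; buffer-only and substrate-only wells as blanks.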

[4] = test system: HCT 116 (colon) cells; experiment: Anti-cancer screen (MTT), HCT 116; type: cell-based; conditions: Homo sapiens, HCT-116, HCT116, 48 hours, MTT; for GI50: read-out: Cell growth inhibition HCT116 (Colon) GI50; for CC50: read-out: Cell growth inhibition HCT116 (Colon) LC50; for IC (TGI): read-out: Cell growth inhibition HCT116 (Colon) TGI
Procedure, shortened: as §1

[5] = test system: NCIH460 (lung) cells; experiment: Anti-cancer screen (MTT), NCIH460; type: cell-based; conditions: Homo sapiens, NCI-H460, NCIH460, 48 hours, MTT; for GI50: read-out: Cell growth inhibition NCIH460 (Lung) GI50; for LC50: read-out: Cell growth inhibition NCIH460 (Lung) LC50; for IC (TGI): read-out: Cell growth inhibition NCIH460 (Lung) TGI
Procedure, shortened: as §1

[6] = test system: U251 (glioma) cells; experiment: Anti-cancer screen (MTT), U251; type: cell-based; conditions: Homo sapiens, U-251, U251, 48 hours, MTT; for GI50: read-out: Cell growth inhibition U251 (Glioma) GI50; for LC50 (concentration giving 50% net cell kill relative to the time-zero cell count): read-out: Cell growth inhibition U251 (Glioma) LC50; for IC (TGI): read-out: Cell growth inhibition U251 (Glioma) TGI
Procedure, shortened: as §1

[7] = test system: p21; experiment: p21 induction, sandwich ELISA in HCT116 lysate; type: cell-based; conditions: HCT116, 18 hours
Description: (§2) Acetylated histone (H3), acetylated Tubulin and p21 levels were detected in cell lysate by sandwich ELISA method (Cell Signaling Technology, USA, Cat No: 7232, 7204 & 7167 respectively) by following manufacturer's instructions. Briefly, colon cancer cells (HCT116. 10,000/well) were incubated with test compound (1 and 10 μM) or medium (control) for 4 hours at 37° C. in CO2 incubator. The incubation lasted 18 hours for p21 induction. After incubation, cell lysates were prepared in cell lysis buffer by sonication on ice. The lysates were collected after centrifugation and subjected to ELISA test procedure. 100 μL of each diluted cell lysate in dilution buffer (1:1) was added to appropriate capture antibody coated microwells and incubated overnight at 4° C. After washing, 100 μL of detection antibody was added for 1 hour at 37° C. After second washing, 100 μL of HRP-linked secondary antibody was added for 30 min at 37° C. Finally, after appropriate washing, 100 μL of TMB substrate was added for 10 min at 37° C. followed by 100 μL of stop solution. The absorbance of individual wells was read using a spectrophotometer at 450 nm (A450).

[8] = test system: acetylated Tubulin; experiment: Tubulin acetylation, sandwich ELISA in HCT116 lysate; type: cell-based; conditions: HCT116, 4 hours
Description: as §2

[9] = test system: Acetylated histone (H3); experiment: Histone (H3) acetylation, sandwich ELISA in HCT116 lysate; type: cell-based; conditions: HCT116, 4 hours
Description: as §2

recombinant HDAC1 enzyme, sequence (Q13547 whole entry, canonical isoform): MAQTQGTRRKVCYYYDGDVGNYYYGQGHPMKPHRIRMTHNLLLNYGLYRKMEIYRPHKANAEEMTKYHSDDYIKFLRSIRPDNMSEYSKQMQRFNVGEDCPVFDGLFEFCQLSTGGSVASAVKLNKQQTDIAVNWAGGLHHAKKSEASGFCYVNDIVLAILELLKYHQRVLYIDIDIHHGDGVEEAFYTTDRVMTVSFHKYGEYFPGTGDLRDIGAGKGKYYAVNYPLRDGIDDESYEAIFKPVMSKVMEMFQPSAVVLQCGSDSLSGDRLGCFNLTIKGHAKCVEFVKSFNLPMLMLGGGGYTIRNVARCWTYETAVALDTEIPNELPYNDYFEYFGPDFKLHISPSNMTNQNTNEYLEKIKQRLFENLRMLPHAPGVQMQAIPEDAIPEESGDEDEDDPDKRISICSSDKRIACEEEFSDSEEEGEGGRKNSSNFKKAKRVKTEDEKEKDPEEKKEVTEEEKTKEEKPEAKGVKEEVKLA

| SMILES | pIC50 [1] | GI50 [2] [µM] | HDAC inhibition % (1 μM) [3] [%] | HDAC inhibition % (10 μM) [3] [%] | pIC50 [3] | GI50 [4] [µM] | CC50 [4] [µM] | IC (TGI) [4] [µM] | GI50 [5] [µM] | LC50 [5] [µM] | IC (TGI) [5] [µM] | GI50 [6] [µM] | LC50 (concentration giving 50% net cell kill relative to the time-zero cell count) [6] [µM] | IC (TGI) [6] [µM] | P21 induction (Fold increase) ([7]; 1 μM) | P21 induction (Fold increase) ([7]; 10 μM) | Tubulin acetylation (Fold increase) ([8]; 1 μM) | Tubulin acetylation (Fold increase) ([8]; 10 μM) | H3 acetylation (Fold increase) ([9]; 1 μM) | H3 acetylation (Fold increase) ([9]; 10 μM) |
| --- | --- | --- | --- | --- | --- | --- | --- | --- | --- | --- | --- | --- | --- | --- | --- | --- | --- | --- | --- | --- |
| COc1ccc(/C=C(/C(=O)NCc2ccc(C(=O)Nc3ccccc3N)cc2)c2ccc(C)cc2)cc1OC [Compound 29, N-(2-Aminophenyl)-4-((3-(3,4-dimethoxyphenyl)-2-(4-methylphenyl)acrylamido)methyl)benzamide] | 7.24 | 4.8 | 34.2 | 52.8 | 4.47 | 0.3 | > 100 | 40 | 3.1 | > 100 | > 100 | 11 | > 100 | 45 |  |  |  |  |  |  |
| CSc1ccc(/C=C(/C(=O)NCc2ccc(C(=O)NO)cc2)c2cccnc2)cc1 [Compound 55, 4-((2-(Pyridin-3-yl)-3-(4-methylthiophenyl)acrylamido)methyl)-N-hydroxybenzamide] |  | 0.8 | 85.7 | 95.1 | 7.70 | 1.1 | 48 | 6.2 | 1 | > 100 | 39 | 0.2 | 56 | 0.4 | 1.3 | 2.5 | 10.4 | 11 | 4.2 | 7.7 |
| COc1ccc(/C=C(/C(=O)NCc2ccc(C(=O)Nc3ccccc3N)cc2)c2cccc(F)c2)cc1OC [Compound 32, N-(2-Aminophenyl)-4-((3-(3,4-dimethoxyphenyl)-2-(3-fluorophenyl)acrylamido)methyl)benzamide] | 7.28 | 1.3 | 39.9 | 61.2 | 5.32 |  | > 100 | 100 | 1.8 | > 100 | > 100 | 2.1 | > 100 | 48 |  |  |  |  |  |  |
| CSc1ccc(/C=C(/C(=O)NCCCCCCC(=O)NO)c2ccc(F)cc2)cc1 [Compound 84, 7-(2-(4-Fluorophenyl)-3-(4-methylthiophenyl)acrylamido)-N-hydroxy heptanamide] |  | 2.6 | 90.0 | 94.3 | 7.22 | 1.2 | > 100 | 21 | 2.3 | 70 | 21 | 4.2 | 95 | 21 |  |  |  |  |  |  |
| CSc1ccc(/C=C(/C(=O)NCc2ccc(C(=O)NO)cc2)c2ccccc2Cl)cc1 [Compound 56, 4-((2-(2-Chlorophenyl)-3-(4-methylthiophenyl)acrylamido)methyl)-N-hydroxybenzamide] |  | > 100 | 7.7 | 8.0 |  | > 100 | > 100 | > 100 | > 100 | > 100 | > 100 | 0.1 | > 100 | 0.1 |  |  |  |  |  |  |
